Test results taken from PubChem BioAssay (NCI).
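Five concentrations, 48 hours, 96-well plates. Abbreviation: GI50, concentration required for 50% inhibition of growth. At the TGI there is no net growth.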

Legend:
Experiment in all cases: inhibition of tumour cell growth, NCI panel, 48 h
[1] = tested on: HCC-2998 colon
[2] = tested on: HCT-15 colon
[3] = tested on: HOP-92 NSCLC
[4] = tested on: HS 578T breast
[5] = tested on: HT29 colon
[6] = tested on: KM12 colon
[7] = tested on: SN12C renal
[8] = tested on: UACC-257 melanoma
[9] = tested on: SF-539 CNS

| SMILES | TGI [1] | TGI [2] | TGI [3] | TGI [4] | TGI [5] | TGI [6] | TGI [7] | TGI [8] | GI50 [1] | GI50 [2] | GI50 [3] | GI50 [4] | GI50 [5] | GI50 [6] | GI50 [9] | TGI [9] | GI50 [7] | GI50 [8] |
| --- | --- | --- | --- | --- | --- | --- | --- | --- | --- | --- | --- | --- | --- | --- | --- | --- | --- | --- |
| CC[C@@]1(O)C(=O)OCc2c1cc1n(c2=O)Cc2cc3c(NC(=O)CN)cccc3nc2-1 | 9.05 µM | > 100 µM | > 100 µM | > 100 µM | > 100 µM | 34.6 µM | 17.1 µM | 13.2 µM | – | – | – | – | – | – | – | – | – | – |
| O=C1CC/C(=C\COc2ccc3ccc(=O)oc3c2)O1 | 35.6 µM | 17.1 µM | 25.5 µM | 81.7 µM | 17.3 µM | 45.2 µM | 28.8 µM | 30 µM | 17 µM | 3.84 µM | 10.6 µM | 11.7 µM | 3.04 µM | 10.1 µM | 2.62 µM | 19.2 µM | 10.3 µM | 13.6 µM |
| C[Si]12OCCCN(CCO1)CCO2 | > 100 µM | – | > 100 µM | – | > 100 µM | > 100 µM | > 100 µM | > 100 µM | – | – | – | – | – | – | – | > 100 µM | – | – |
| NC(=O)NCCSC1CCCCC1O (stereo not drawn) | – | > 100 µM | > 100 µM | > 100 µM | > 100 µM | > 100 µM | > 100 µM | > 100 µM | – | – | – | – | – | – | – | > 100 µM | – | – |
| CCCCCCN1CCN(Cc2ccc(N(CC)CC)cc2)C(=O)C1=O | 28.2 µM | > 100 µM | 38.2 µM | 27.7 µM | > 100 µM | 82.4 µM | 93.9 µM | > 100 µM | 6.45 µM | 1.07 µM | 4.21 µM | 3.14 µM | 3.34 µM | 2.47 µM | 2.57 µM | 8.23 µM | 5.19 µM | 16.9 µM |
| C=C1C(=O)O[C@H]2C[C@@H]1CCC1(C)OC1CC/C(C)=C/CC[C@H]2C (stereo partly drawn) | 33.1 µM | 31.1 µM | – | 61 µM | 34.3 µM | 43.1 µM | 35.5 µM | 37.2 µM | 18.9 µM | 17.3 µM | – | 24 µM | 20.1 µM | 22.2 µM | 28.8 µM | 50.6 µM | 19 µM | 19.2 µM |
| Cc1ccc2[nH]c(C(=O)NN3C(=O)C(C)SC34CCCCC4C)c(-c3ccccc3)c2c1 (stereo not drawn) | 35.5 µM | 38.5 µM | 38.5 µM | 43.2 µM | 39.3 µM | 39.9 µM | 31.6 µM | 37.6 µM | 19.5 µM | 18 µM | 19.5 µM | 14.4 µM | 15.5 µM | 18.5 µM | 22.3 µM | 44.9 µM | 15.7 µM | 20.4 µM |
| NC(N)=N/N=C/c1c(-c2ccc(Cl)c([N+](=O)[O-])c2)nc2ccccn12 | 3.1 µM | 56.1 µM | – | 60.2 µM | > 100 µM | – | 3.66 µM | 31 µM | 1.5 µM | 9.18 µM | – | 24.2 µM | 1.42 µM | – | 0.122 µM | 1.53 µM | 1.87 µM | 6.76 µM |
| CCC[CH2][Sn]1([CH2]CCC)[O]C(=O)CN=Cc2ccccc2[O]1 | 1.81 µM | 1.56 µM | 0.519 µM | – | 2.34 µM | 2.18 µM | 1.13 µM | 0.419 µM | 0.525 µM | 0.358 µM | 0.182 µM | – | 1.08 µM | 0.695 µM | 1.3 µM | > 100 µM | 0.292 µM | 0.164 µM |
| COc1cc(OC)cc(-c2cncn2-c2ccc(-c3nc4cc(OC)cc(OC)c4s3)cc2)c1 | > 100 µM | – | – | > 100 µM | – | > 100 µM | > 100 µM | > 100 µM | > 100 µM | – | – | 5.02 µM | – | 4.52 µM | 5.76 µM | > 100 µM | > 100 µM | > 100 µM |
| O=C1C=CC(=O)c2c1ncc1c2nc2sccn21 | > 100 µM | 39.5 µM | 31.1 µM | 50.8 µM | > 100 µM | > 100 µM | 48.3 µM | 37.2 µM | 78.9 µM | 17.9 µM | 14.9 µM | 12.7 µM | 37.6 µM | > 100 µM | 12.4 µM | 42.4 µM | 23.3 µM | 20.2 µM |
| CN1CCC(n2[nH]c(-c3ccccc3)c(Cc3ccccc3)c2=O)CC1 | > 100 µM | > 100 µM | > 100 µM | > 100 µM | > 100 µM | > 100 µM | > 100 µM | > 100 µM | – | – | – | – | – | – | – | > 100 µM | – | – |
| COc1ccc(/C=C\c2cc(OC)c(OC)c(OC)c2)cc1OCC(=O)Nc1nc2ccc(OC(F)(F)F)cc2s1 | > 100 µM | > 100 µM | 45.1 µM | > 100 µM | > 100 µM | 51.5 µM | > 100 µM | > 100 µM | 17.1 µM | 3.23 µM | 2.74 µM | 4.33 µM | > 100 µM | 4.48 µM | 2.28 µM | 6.13 µM | 6.42 µM | 89.2 µM |
| c1cncc(CNc2ncn[nH]2)c1 | – | > 100 µM | > 100 µM | > 100 µM | > 100 µM | > 100 µM | > 100 µM | > 100 µM | – | – | – | – | – | – | – | > 100 µM | – | – |
